Key:
Assay type in all cases: in vivo, human
[1] = system: patients with Alzheimer's type dementia; experiment: Case reports, Mild Cognitive Impairment (MCI) and Dementia (Example 1)
From the text: Patient 1A was an elderly person with history of impairment of cognitive function. Presumptive diagnosis of possible dementia of Alzheimers type.
Patient 1B was an elderly retired person with a 7 year history of Alzheimer's type dementia treated with the cholinesterase inhibitor Donepezil. […] Their cognitive function has gradually deteriorated since this time. […] Their reading was more fluent being better able to follow the meaning of the text. There was also improvement in their Stroop Test particularly in part three, the more cognitively demanding where their accuracy improved from 50 to 90%.

[2] = system: patients with reading / learning difficulties; experiment: Case reports, Reading Disorder (Example 2)
From the text: They noticed greater contrast when reading. This had reduced their dependency upon spectacles which they had relied on for many years. […] Patient described an unexpected improvement in the clarity and contrast of the words and letters, further commenting on the improvement in their ability to both see and comprehend the words simultaneously. Patient also described a reduction in the instability or movement of the words on the page which had always been experienced when reading. Also further commented on the subjective improvement in vision, with an apparent improved depth perception. […] Patient noticed greater contrast in the text when reading and this had reduced their dependency upon spectacles which they had relied on for many years. […] The patient has been able to sustain employment with considerable effort. Reading had always been effortful and largely unrewarding. Patient had described difficulties tracking along the text being frequently distracted by the lines above and below becoming lost on the page as well as having little recall or comprehension of what they had read.

[3] = system: patients with closed head injury; experiment: Case reports, Acquired Brain Injury (Example 4)
[4] = system: patients with visual fatigue / impaired visual acuity; experiment: Case reports, Visual fatigue / visual acuity (Example 5); details: for three-dimensional delicate work (visual acuity and depth perception): Patient 5d
From the text: Adult with a history of ADHD stabilised on a combination of a psychostimulant and sodium valproate.
Adult diagnosed with ADHD and stable on treatment with psychostimulants. […] Previously always relied on glasses to read because of an astigmatism.
Adult previously diagnosed with ADHD and no longer taking stimulant medication.

[5] = system: patients with schizophrenia; experiment: Case reports, Schizophrenia (Example 7)
From the text: Patient 7A: Adult, initially diagnosed with schizophrenia in adolescence. Long history of impairment with predominant paranoid delusions controlled with antipsychotic medication although still experiencing significant relapses despite consistent adherence to the pharmacotherapy regime. Significant social impairment, unable to sustain employment and requires support. Prominent negative symptoms and social deficits, unable to sustain eye contact when speaking. Speech slow, effortful and fatiguing. […] Prosody and rate of speech both improved. Patient 7B: Adult initially diagnosed with schizophrenia during adolescence, following many years of prominent positive symptoms with severe behavioural disturbances and violence requiring periods of hospitalisation. Patient has never been able to sustain employment and requires significant social support to maintain functioning. Prominent thought disorder and general social disengagement. […] Able to sustain and enjoy social interaction in a sheltered workshop which had never occurred previously.

[6] = system: patients with bipolar mood disorder; experiment: Case report, Bipolar (Example 8)
[7] = system: patients with PTSD; experiment: Case reports, PTSD (Example 9)
From the text: Patient 9A: Two year history of PTSD & Major Depression, unable to work for nine months. […] Eight months specialist psychiatric treatment including specific PTSD therapy program. […] No history of premorbid ASD or ADHD, possible mild reading difficulties.
Patient 9B: 40 year history of severe PTSD associated with severe re-experiencing phenomena, absence of any family relationships and social withdrawal, anger outbursts, chronic sleep disturbance exaggerated startle reflex and hypervigilance. Comorbid conditions including chronic major depression, alcohol dependence. Attended regular psychiatric treatment for in excess of five years. Treated with a combination of regular outpatient psychotherapy and pharmacotherapy including antidepressants and antipsychotic medications.
Patient 9C: history of PTSD associated with chronic impairment in previous alcohol dependence. Previous psychiatric admissions as a consequence of condition. Long-term antidepressant therapy together with intermittent use of antipsychotic medication.

[8] = Patient 4A, test dose less than 3 mg via buccal mucosa
[9] = Patient 4B, test sublingual dose 1 mg

## O=C1NC(=O)C(c2ccccc2)(c2ccccc2)N1 [phenyloin, 5,5-diphenylhydantoin]
[1]; Patient 1A, possible dementia of Alzheimers type, 25 mg
  cognitive function, clinical response: some improvement but benefit was lost on continuation of this dose
[1]; Patient 1A, 3 mg daily
  duration of sustained benefit: over 24 months
[1]; Patient 1A, daily dose of 3 mg in divided doses orally
  cognitive function, clinical response: significant improvement
[1]; Patient 1A, withdrawal after 25 mg
  cognitive function after withdrawal of medication: transient improvement followed by a return to pre-phenyloin functioning
[1]; Patient 1B (treated with Donepezil), test dose 1 mg sublingual
  ability to read a standard text: significant improvement in their ability to read a standard text
[1]; Patient 1B, 1 mg sublingual
  time to improvement in reading after dose: ≤ 10 min
[1]; Patient 1B, 1 mg sublingual single dose
  functioning the following day after single dose: more able to initiate activities
[1]; Patient 1B, 1 mg sublingual, improved from 50
  Stroop Test part three accuracy after dose: 90%
[2]; Patient 2A, 1 mg daily
  visual acuity / contrast when reading: visual acuity had appeared to improve
[2]; Patient 2A
  benefits at a higher dose: not sustained at a higher dose
[2]; Patient 2B, 1 mg sub lingual dose
  reading, pseudo word component of WAIT: improved ability to read
[2]; Patient 2B, dose increased to 50 mg
  benefits at increased dose: beneficial effects were lost
[2]; Patient 2C, 1 mg daily
  visual acuity / contrast in the text when reading: visual acuity had appeared to improve
[2]; Patient 2C
  benefits at a higher dose: not sustained at a higher dose
[2]; Patient 2D, 0.5 mg dose
  ability to read: significant improvement in their ability to read with less effort
[3]; Patient 4A, dose increased, second day
  clinical response to increased dose, following day: no dramatic improvement
[3]; Patient 4A, phenyloin ceased, followed by deterioration to pre-phenyloin functioning
  functioning over five days after cessation: gradual improvement in their functioning
[3]; Patient 4A, repeated sublingual dose
  developmental Eye Movement Test and Stroop test: consistent with the improved cognitive functioning
[3]; Patient 4A, same increased dose, third day
  clinical response to repeated dose, third day: noticeable deterioration in their ability to focus and organize their thinking
[3]; [8]
  ability to focus: dramatic and unexpected improvement in their ability to focus
  motor tics and vocalisations: repetitive chanting and hand movements ceased
[3]; Patient 4B, 3 mg
  reading: began reading for the first time in 10 years
[3]; Patient 4B, initial dose of 3 mg
  ability to organise and undertake tasks: unexpected and dramatic improvement in the ability to organise and undertake tasks
[3]; [9]
  effort required for communication: reduction in the effort required for communication
  subjective vision: enhanced clarity of vision
[3]; Patients 4A and 4B, further dose
  irritability and sense of being overwhelmed after a further dose: temporary relief
[3]; both cases (Patients 4A and 4B)
  duration of sustained improvements: over 12 months
[4]; Patient 5a, ADHD on psychostimulant and sodium valproate, 4 mg added
  overall functioning: further improvement in their overall functioning
[4]; Patient 5a, 4 mg added
  visual fatigue: visual fatigue no longer occurred
[4]; Patient 5b, ADHD on psychostimulants, 2 mg daily
  function: significant improvement in function
[4]; Patient 5b, 2 mg daily
  visual acuity: apparent improvement in their visual acuity
[4]; Patient 5c, 1 mg
  visual acuity whilst reading: immediate and unexpected improvement in visual acuity
[4]; Patient 5e, low dose
  judging distances when playing lawn bowls: improvement in their ability to accurately identify distances
[4]; Patient 5f, low dose
  visual judgement when playing soccer: improvement in visual judgement
[4]; 1 mg
  three-dimensional delicate work (visual acuity and depth perception): most consistent improvement
[4]; 2 mg
  three-dimensional delicate work (visual acuity and depth perception): improved
[5]; Patient 7A (on antipsychotic medication), 2 mg daily
  communication, prosody and rate of speech: significant improvement in ability to communicate with less effort
[5]; Patient 7B, 1 mg sublingual
  speech and reading aloud a standard text: significant improvement in speech and ability to read aloud a standard text
[5]; Patient 7B, phenyloin withdrawn
  effects when withdrawn: Positive effects abated
[6]; Patient 8A, bipolar mood disorder, compounded 2 mg capsule
  function: significant improvement in function
[6]; Patient 8A, 2 mg capsule
  improvements noted: enhanced organisation and planning • reduced effort required for social interaction • enhanced clarity of thought • a sense of being psychologically more normal
[6]; patients with bipolar spectrum disorders, much higher dose
  clinical effect of a much higher dose: good effect
[6]; some patients with bipolar mood disorder, very low dose added
  executive functioning: significant improvement in their executive functioning
[7]; Patient 9A
  duration improvements maintained: over three months
[7]; Patient 9A, 2 mg daily
  time to reported improvements: ≤ 24 h
[7]; Patient 9A, dose reduced to 1 mg and increased to 4 mg
  efficacy after dose change: reduction in efficacy
[7]; Patient 9B, low dose
  overall improvement described: 50%
[7]; Patient 9C
  most stable and efficacious dose: 0.5 mg daily
[7]; Patient 9C, 0.5 mg daily
  stable improvements: reduction of intrusive and negative thoughts • Enhanced interpersonal communication • Reduced effort of reading • Enhanced quality of sleep
[7]; Patient 9C, 3 mg
  adverse effects: became irritable and experienced word finding difficulties
  intrusive thoughts, mood stability and concentration: initial improved ability to dismiss and ignore distressing, intrusive thoughts
[7]; Patient 9C, periods of complete withdrawal
  functioning during complete withdrawal: return to their pre-phenyloin functioning including a worsening of their symptoms of PTSD
[7]; patients with PTSD, Ultra low dose
  functional capacity and symptoms of PTSD: significant improvements in functional capacity as well as a reduction in the symptoms of PTSD

Source: patent publication US20140142140A1, “PHARMACEUTICAL COMPOSITION FOR NEUROLOGICAL DISORDERS” (priority 2011, published 2014)
